{"source": "patent US6172102A", "about": "“Pyrrole derivatives and medicinal composition” (Nippon Shinyaku Co., Ltd., priority 1995, dated 2001)", "system": "urinary bladder", "test": "Cystometrography (rats): bladder capacity after intraduodenal administration", "format": "in vivo", "conditions": "female SD rats, urethane anesthesia, max of 0.5, 1, 2, 3 h, mean", "protocol": "Cystometrography is a method for ascertaining the relation between intravesical pressure and bladder capacity and provides information on the time course of condition of the urinary bladder from urine filling to micturition, the possible involuntary contraction of the urinary bladder, and the contractility of the detrusor muscle during micturition.\nThe experiment was performed using 9 to 13-weeks old female SD rats in groups of 3-5. After a median incision was made in the abdominal region under urethane anesthesia, a polyethylene indwelling cannula was inserted into the urinary bladder dome through the apex of the urinary bladder and fixed. The other end of the cannula was connected to a T-tube for infusion of saline via one branch and changes in intravesical pressure were recorded via the other branch. When warmed saline was continuously infused into the urinary bladder at a constant rate, the urinary bladder was distended and, when the pressure reached a threshold, the urinary bladder underwent rapid contractions and at the same time a micturition was induced. This procedure was repeated until the volume of saline from the start of infusion to the threshold intravesical pressure (bladder capacity) became steady giving approximately constant values in at least two consecutive determinations. Then, the test compound was administered into the duodenum. The bladder capacity was measured immediately before administration of the test compound and 0.5, 1, 2, and 3 hours after administration. The maximum increase rate (%) in bladder capacity was calculated by means of the following equation.\nMaximum increase rate in bladder capacity=[(A-B)/B]×100\nwhere B represents the bladder capacity value immediately before administration of the test compound and A represents the maximum bladder capacity at 0.5, 1, 2, and 3 hours after administration of the test compound. The data shown are mean values."}
{"smiles": "N#Cc1cc(-c2ccccc2)[nH]c1N", "note": "[compound 15]", "values": [{"measurement": "Maximum increase rate (%) in bladder capacity", "setting": "10 mg/kg", "result": 53.8, "unit": "%"}]}
{"smiles": "CCCOC(C(=O)OC1CCN(C)CC1)(c1ccccc1)c1ccccc1", "note": "[Propiverine, propiverine, reference compound]", "values": [{"measurement": "Maximum increase rate (%) in bladder capacity", "setting": "100 mg/kg", "result": 42.0, "unit": "%"}]}
{"smiles": "Cc1c(-c2cc(F)ccc2F)[nH]c(N)c1C#N", "note": "[compound 63, 2-Amino-3-cyano-4-methyl-5-(2,5-difluorophenyl)pyrrole]", "values": [{"measurement": "Maximum increase rate (%) in bladder capacity", "setting": "3 mg/kg", "result": 49.9, "unit": "%"}]}
{"smiles": "Cc1c(-c2ccccc2F)[nH]c(N)c1C#N", "note": "[compound 1, 2-Amino-3-cyano-4-methyl-5-(2-fluorophenyl)pyrrole]", "values": [{"measurement": "Maximum increase rate (%) in bladder capacity", "setting": "3 mg/kg", "result": 60.8, "unit": "%"}]}
{"smiles": "Cc1c(-c2cccnc2)[nH]c(N)c1C#N", "note": "[compound 8, 2-Amino-3-cyano-4-methyl-5-(3-pyridyl)pyrrole]", "values": [{"measurement": "Maximum increase rate (%) in bladder capacity", "setting": "30 mg/kg", "result": 55.4, "unit": "%"}]}
{"smiles": "N#Cc1cc(-c2ccc(F)cc2)[nH]c1N", "note": "[compound 41]", "values": [{"measurement": "Maximum increase rate (%) in bladder capacity", "setting": "10 mg/kg", "result": 38.8, "unit": "%"}]}
{"smiles": "Cc1c(-c2ccccc2)[nH]c(N)c1C#N", "note": "[R1, 2-Amino-3-cyano-4-methyl-5-phenylpyrrole, reference compound]", "values": [{"measurement": "Maximum increase rate (%) in bladder capacity", "setting": "3 mg/kg", "result": 63.6, "unit": "%"}]}
